Data taken from patent publication US7132409B2, “Adenosine derivatives and use thereof” (Toa Eiyo Ltd., priority 2000, dated 2006).
≈ marks a conversion by molar mass, not a printed value. Like-named read-outs stand apart in the source and are kept apart here.

Tests used:
blood flow in the retina = assay: Effects on blood vessel diameter and blood flow in the retina of rabbits; format: in vivo
optic nerve failure = assay: Model of retina failure induced through reperfusion after transient ischemia in rat; format: in vivo
[1] = tested on: ocular tension of Japanese white rabbits; assay: Test Example 1: effect of lowering ocular tension after instillation in rabbit eyes; format: in vivo; conditions: 0.1% solution, 50 μL instilled to one eye; for AUC (area under the curve of time versus change in difference in ocular tension, treated eye vs eye drop base eye): up to 480 min
Procedure: Each of the mentioned compounds was dissolved in saline containing polysorbate 80 (hereinafter the saline will be referred to as “eye drop base A”) or in a borate buffer (pH 7.0) containing polysorbate 80 (hereinafter the solution will be referred to as “eye drop base B”) (polysorbate 80 content of each base: 5 mg/mL).
Japanese white rabbits (male; Kitayama Labes Co., Ltd.) (weight: 2.7–3.9 kg) were employed in the test for measuring ocular tension. The rabbits were retained in a box-type fixation apparatus during the test.
The ocular tension of each rabbit was measured by use of a Model 30 Classic Pneumatonometer (product of Mentor) without anesthesia. Before the ocular tension was measured, 0.4% oxybuprocaine hydrochloride (Benoxil 0.4% eye drop solution, product of Santen Pharmaceutical Co., Ltd.) was instilled into the eyes of each rabbit, to thereby anesthetize the surface of the cornea. The ocular tension of each rabbit was measured several times at predetermined intervals. Three measurements of ocular tension, as measured when a constant value was reached, were averaged, and the average value was employed as representing the ocular tension.
A 0.1% solution of each test compound (50 μL) was instilled to one eye of each of the respective rabbits, and simultaneously the eye drop base (50 μL) was instilled to the other eye. The ocular tensions of both eyes were measured 60 minutes before instillation of the test compound; 0 minute immediately before instillation; and 30, 60, 90, 120, 150, 180, 240, 300, 360, 420, and 480 minutes after instillation. Four to six rabbits were employed for each test compound. For control, each eye drop base was instilled to both eyes of rabbits, and the ocular tension thereof was measured in a manner similar to that described above.
For each test compound, the effect of lowering ocular tension was evaluated on the basis of the following values: the area under the curve of time versus change in difference between the ocular tension of the eye to which the test compound was instilled and that of the eye to which the eye drop base was instilled (hereinafter the area will be abbreviated as AUC (mmHg•min)); and the maximum value of difference between the ocular tension of the eye to which the test compound was instilled and that of the eye to which the eye drop base was instilled (hereinafter the value will be abbreviated as Emax (mmHg)).

[2] = Test Example 2: saturation solubility in isotonic borate buffer (HPLC); conditions: for solubility at 6 h: isotonic borate buffer, 20 °C, pH 7, aqueous buffer, thermodynamic from solid
Procedure: (§1) Each of the test compounds was dispersed in an isotonic borate buffer (pH 7.0). The resultant mixture was shaken at 20° C. for 6 hours and then centrifuged. The concentration of the test compound in the supernatant was measured through HPLC for calculation of saturation solubility of the compound.
(§2) Detector: UV absorptiometer (wavelength: 270 nm)
(§3) Column: ODS column (inner diameter 4.6 mm, length 15 cm)
(§4) Mobile phase: An acetonitrile/triethylammonium acetate buffer (pH 7) mixture

[3] = pH 7
Procedure: as §1, §2, §3, §4

[4] = eye drop base B (borate buffer pH 7.0 with polysorbate 80)
[5] = eye drop base A (saline with polysorbate 80)

| solubility at 6 h [2] [µg/mL] | Structure (SMILES) | Emax (maximum difference in ocular tension, treated eye vs eye drop base eye) [1, 4] [mmHg] | AUC (area under the curve of time versus change in difference in ocular tension, treated eye vs eye drop base eye) [1, 4] [mmHg · min] | Emax (maximum difference in ocular tension, treated eye vs eye drop base eye) [1, 5] [mmHg] | AUC (area under the curve of time versus change in difference in ocular tension, treated eye vs eye drop base eye) [1, 5] [mmHg · min] | also measured |
| --- | --- | --- | --- | --- | --- | --- |
| 16600 (≈ 44600 µM) | N#CCCCCC#Cc1nc(N)c2ncn([C@@H]3O[C@H](CO)[C@@H](O)[C@H]3O)c2n1 [Compound 1, 2-(6-cyano-1-hexyn-1-yl)adenosine] | −4.3 | −1303.1 | – | – | melting point: 91 to 94 °C; effects of promoting vasodilatation and blood flow in the retina (blood flow in the retina): particularly excellent effects of promoting vasodilatation and blood flow in the retina; effects of protecting optic nerve failure (optic nerve failure): particularly excellent effects of protecting optic nerve failure |
| > 200000 | N#CCCCCC#Cc1nc(N)c2ncn([C@@H]3O[C@H](COP(=O)([O-])[O-])[C@@H](O)[C@H]3O)c2n1.[Na+].[Na+] [Compound 2, disodium 2-(6-cyano-1-hexyn-1-yl)adenosine 5′-monophosphate] | −6.0 | −1965.0 | – | – | – |
| – | N#CCCCC#Cc1nc(N)c2ncn([C@@H]3O[C@H](CO)[C@@H](O)[C@H]3O)c2n1 [Referential Compound 1, 2-(5-cyano-1-pentyn-1-yl)adenosine] | −3.0 | −584.0 | – | – | – |
| – | N#CCCCCCC#Cc1nc(N)c2ncn([C@@H]3O[C@H](CO)[C@@H](O)[C@H]3O)c2n1 [Referential Compound 2, 2-(7-cyano-1-heptyn-1-yl)adenosine] | −2.6 | −844.5 | – | – | – |
| – | Nc1nc(C#CC2CCCC2)nc2c1ncn2[C@@H]1O[C@H](CO)[C@@H](O)[C@H]1O [Referential Compound 3, 2-cyclopentylethynyladenosine] | −4.4 | −1532.7 | – | – | Saturation solubility [3]: 1400 µg/mL |
| 300 (≈ 799 µM) | CCCCCCC#Cc1nc(N)c2ncn([C@@H]3O[C@H](CO)[C@@H](O)[C@H]3O)c2n1 [Referential Compound 4, 2-(1-octyn-1-yl)adenosine] | – | – | −4.2 | −1093.5 | – |
| 700 (≈ 1420 µM) | Nc1nc(C#CCCCCN2C(=O)c3ccccc3C2=O)nc2c1ncn2[C@@H]1O[C@H](CO)[C@@H](O)[C@H]1O [Referential Compound 5, 2-(6-phthalimidyl-1-hexyn-1-yl)adenosine] | – | – | −6.3 | −1471.0 | – |
| – | CCCCC#Cc1nc(N)c2ncn([C@@H]3O[C@H](C(=O)NC)[C@@H](O)[C@H]3O)c2n1 [Referential Compound 6, 2-(1-hexyn-1-yl)adenosine-4′-methylcarboxamide] | – | – | −6.0 | −1838.3 | Saturation solubility ([2]; isotonic borate buffer pH 7.0, shaken at 20° C. for 6 hours): 500 µg/mL |
